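Compound exposure: 48 hours, 5 concentrations, 96-well plates. GI50 marks 50% less growth. At the TGI there is no net growth.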
What was measured:
Assay in all cases: NCI-60 cell line screen, 48 h
TK-10 renal = tested on: TK-10 renal
U251 CNS = tested on: U251 CNS
OVCAR-3 ovarian = tested on: OVCAR-3 ovarian
SK-MEL-28 melanoma = tested on: SK-MEL-28 melanoma
SW-620 colon = tested on: SW-620 colon
RPMI-8226 leukemia = tested on: RPMI-8226 leukemia
UO-31 renal = tested on: UO-31 renal
XF 498 CNS = tested on: XF 498 CNS
SNB-75 CNS = tested on: SNB-75 CNS
NCI-H460 lung = tested on: NCI-H460 lung
DLD-1 colon = tested on: DLD-1 colon
NCI-H23 lung = tested on: NCI-H23 lung
SF-268 CNS = tested on: SF-268 CNS
SNB-19 CNS = tested on: SNB-19 CNS
RXF 393 renal = tested on: RXF 393 renal
HCC-2998 colon = tested on: HCC-2998 colon
COLO 205 colon = tested on: COLO 205 colon
CAKI-1 renal = tested on: CAKI-1 renal
OVCAR-5 ovarian = tested on: OVCAR-5 ovarian
M14 melanoma = tested on: M14 melanoma
KM20L2 colon = tested on: KM20L2 colon
NCI-H226 lung = tested on: NCI-H226 lung
DMS 273 small cell lung = tested on: DMS 273 small cell lung
SK-MEL-5 melanoma = tested on: SK-MEL-5 melanoma
UACC-62 melanoma = tested on: UACC-62 melanoma
IGROV1 ovarian = tested on: IGROV1 ovarian
SN12C renal = tested on: SN12C renal
KM12 colon = tested on: KM12 colon
MALME-3M melanoma = tested on: MALME-3M melanoma
DMS 114 small cell lung = tested on: DMS 114 small cell lung
HCT-15 colon = tested on: HCT-15 colon
LOX IMVI melanoma = tested on: LOX IMVI melanoma
LXFL 529 NSCLC = tested on: LXFL 529 NSCLC
EKVX NSCLC = tested on: EKVX NSCLC
OVCAR-8 ovarian = tested on: OVCAR-8 ovarian
NCI-H522 lung = tested on: NCI-H522 lung
A549 NSCLC = tested on: A549 NSCLC
SF-295 CNS = tested on: SF-295 CNS
SK-MEL-2 melanoma = tested on: SK-MEL-2 melanoma
786-0 renal = tested on: 786-0 renal
SF-539 CNS = tested on: SF-539 CNS
SR leukemia = tested on: SR leukemia
ACHN renal = tested on: ACHN renal
OVCAR-4 ovarian = tested on: OVCAR-4 ovarian
HCT-116 colon = tested on: HCT-116 colon
SK-OV-3 ovarian = tested on: SK-OV-3 ovarian
MOLT-4 leukemia = tested on: MOLT-4 leukemia
M19-MEL melanoma = tested on: M19-MEL melanoma
HOP-92 NSCLC = tested on: HOP-92 NSCLC
HT29 colon = tested on: HT29 colon
K-562 leukemia = tested on: K-562 leukemia
HL-60(TB) leukemia = tested on: HL-60(TB) leukemia
SNB-78 CNS = tested on: SNB-78 CNS
UACC-257 melanoma = tested on: UACC-257 melanoma
CCRF-CEM leukemia = tested on: CCRF-CEM leukemia
A498 renal = tested on: A498 renal
HOP-62 NSCLC = tested on: HOP-62 NSCLC

CC(=O)[CH-]C(C)=O.CC(=O)[CH-]C(C)=O.CC(=O)[CH-]C(C)=O.[Ga+3]
GI50 (TK-10 renal): > 100 µM
TGI (TK-10 renal): > 100 µM
GI50 (U251 CNS): > 100 µM
TGI (U251 CNS): > 100 µM
GI50 (OVCAR-3 ovarian): > 100 µM
TGI (OVCAR-3 ovarian): > 100 µM
GI50 (SK-MEL-28 melanoma): > 100 µM
TGI (SK-MEL-28 melanoma): > 100 µM
GI50 (SW-620 colon): > 100 µM
TGI (SW-620 colon): > 100 µM
GI50 (RPMI-8226 leukemia): > 100 µM
TGI (RPMI-8226 leukemia): > 100 µM
GI50 (UO-31 renal): > 100 µM
TGI (UO-31 renal): > 100 µM
GI50 (XF 498 CNS): > 100 µM
TGI (XF 498 CNS): > 100 µM
GI50 (SNB-75 CNS): > 100 µM
TGI (SNB-75 CNS): > 100 µM
GI50 (NCI-H460 lung): > 100 µM
TGI (NCI-H460 lung): > 100 µM
GI50 (DLD-1 colon): > 100 µM
TGI (DLD-1 colon): > 100 µM
GI50 (NCI-H23 lung): > 100 µM
TGI (NCI-H23 lung): > 100 µM
GI50 (SF-268 CNS): > 100 µM
TGI (SF-268 CNS): > 100 µM
GI50 (SNB-19 CNS): > 100 µM
TGI (SNB-19 CNS): > 100 µM
GI50 (RXF 393 renal): > 100 µM
TGI (RXF 393 renal): > 100 µM
GI50 (HCC-2998 colon): > 100 µM
TGI (HCC-2998 colon): > 100 µM
GI50 (COLO 205 colon): > 100 µM
TGI (COLO 205 colon): > 100 µM
GI50 (CAKI-1 renal): > 100 µM
TGI (CAKI-1 renal): > 100 µM
GI50 (OVCAR-5 ovarian): > 100 µM
TGI (OVCAR-5 ovarian): > 100 µM
GI50 (M14 melanoma): > 100 µM
TGI (M14 melanoma): > 100 µM
GI50 (KM20L2 colon): > 100 µM
TGI (KM20L2 colon): > 100 µM
GI50 (NCI-H226 lung): > 100 µM
TGI (NCI-H226 lung): > 100 µM
GI50 (DMS 273 small cell lung): > 100 µM
TGI (DMS 273 small cell lung): > 100 µM
GI50 (SK-MEL-5 melanoma): > 100 µM
TGI (SK-MEL-5 melanoma): > 100 µM
GI50 (UACC-62 melanoma): > 100 µM
TGI (UACC-62 melanoma): > 100 µM
GI50 (IGROV1 ovarian): > 100 µM
TGI (IGROV1 ovarian): > 100 µM
GI50 (SN12C renal): > 100 µM
TGI (SN12C renal): > 100 µM
GI50 (KM12 colon): > 100 µM
TGI (KM12 colon): > 100 µM
GI50 (MALME-3M melanoma): > 100 µM
TGI (MALME-3M melanoma): > 100 µM
GI50 (DMS 114 small cell lung): > 100 µM
TGI (DMS 114 small cell lung): > 100 µM
GI50 (HCT-15 colon): > 100 µM
TGI (HCT-15 colon): > 100 µM
GI50 (LOX IMVI melanoma): 32.7 µM
TGI (LOX IMVI melanoma): > 100 µM
GI50 (LXFL 529 NSCLC): > 100 µM
TGI (LXFL 529 NSCLC): > 100 µM
GI50 (EKVX NSCLC): > 100 µM
TGI (EKVX NSCLC): > 100 µM
GI50 (OVCAR-8 ovarian): > 100 µM
TGI (OVCAR-8 ovarian): > 100 µM
GI50 (NCI-H522 lung): > 100 µM
TGI (NCI-H522 lung): > 100 µM
GI50 (A549 NSCLC): > 100 µM
TGI (A549 NSCLC): > 100 µM
GI50 (SF-295 CNS): > 100 µM
TGI (SF-295 CNS): > 100 µM
GI50 (SK-MEL-2 melanoma): > 100 µM
TGI (SK-MEL-2 melanoma): > 100 µM
GI50 (786-0 renal): > 100 µM
TGI (786-0 renal): > 100 µM
GI50 (SF-539 CNS): > 100 µM
TGI (SF-539 CNS): > 100 µM
GI50 (SR leukemia): > 100 µM
TGI (SR leukemia): > 100 µM
GI50 (ACHN renal): > 100 µM
TGI (ACHN renal): > 100 µM
GI50 (OVCAR-4 ovarian): > 100 µM
TGI (OVCAR-4 ovarian): > 100 µM
GI50 (HCT-116 colon): > 100 µM
TGI (HCT-116 colon): > 100 µM

CS(=O)(=O)C1(Br)S(=O)(=O)OCCOS1(=O)=O
TGI (SK-OV-3 ovarian): > 100 µM
TGI (TK-10 renal): > 100 µM
TGI (U251 CNS): > 100 µM
TGI (MOLT-4 leukemia): > 100 µM
TGI (OVCAR-3 ovarian): > 100 µM
TGI (SK-MEL-28 melanoma): > 100 µM
TGI (SW-620 colon): > 100 µM
TGI (RPMI-8226 leukemia): > 100 µM
TGI (UO-31 renal): > 100 µM
TGI (XF 498 CNS): > 100 µM
TGI (M19-MEL melanoma): > 100 µM
TGI (SNB-75 CNS): > 100 µM
TGI (HOP-92 NSCLC): > 100 µM
TGI (NCI-H460 lung): > 100 µM
TGI (DLD-1 colon): > 100 µM
TGI (NCI-H23 lung): > 100 µM
TGI (SF-268 CNS): > 100 µM
TGI (SNB-19 CNS): > 100 µM
TGI (RXF 393 renal): > 100 µM
TGI (HCC-2998 colon): > 100 µM
TGI (COLO 205 colon): > 100 µM
TGI (HT29 colon): > 100 µM
TGI (OVCAR-5 ovarian): > 100 µM
TGI (M14 melanoma): > 100 µM
TGI (KM20L2 colon): > 100 µM
TGI (NCI-H226 lung): > 100 µM
TGI (DMS 273 small cell lung): > 100 µM
TGI (SK-MEL-5 melanoma): > 100 µM
TGI (K-562 leukemia): > 100 µM
TGI (UACC-62 melanoma): > 100 µM
TGI (IGROV1 ovarian): > 100 µM
TGI (SN12C renal): > 100 µM
TGI (HL-60(TB) leukemia): > 100 µM
TGI (MALME-3M melanoma): > 100 µM
TGI (SNB-78 CNS): > 100 µM
TGI (DMS 114 small cell lung): > 100 µM
TGI (HCT-15 colon): > 100 µM
TGI (UACC-257 melanoma): > 100 µM
TGI (LOX IMVI melanoma): > 100 µM
TGI (LXFL 529 NSCLC): > 100 µM
TGI (EKVX NSCLC): > 100 µM
TGI (OVCAR-8 ovarian): > 100 µM
TGI (CCRF-CEM leukemia): > 100 µM
TGI (NCI-H522 lung): > 100 µM
TGI (A498 renal): > 100 µM
TGI (A549 NSCLC): > 100 µM
TGI (SF-295 CNS): > 100 µM
TGI (SK-MEL-2 melanoma): > 100 µM
TGI (786-0 renal): > 100 µM
TGI (SF-539 CNS): > 100 µM
TGI (HOP-62 NSCLC): > 100 µM
TGI (SR leukemia): > 100 µM
TGI (ACHN renal): > 100 µM
TGI (OVCAR-4 ovarian): > 100 µM
TGI (HCT-116 colon): > 100 µM

From PubChem BioAssay (NCI)
